Data: patent US6911446B2, “Methods of modulating serine/threonine protein kinase function with quinazoline-based compounds” (Sugen, Inc., priority 1997, dated 2005)
Values joined by “and” are separate entries in the source; they are usually repeats but may differ in a detail not shown here. Equal entries are not always repeated.

Tests used:
RAF-1 = biological target: T1, RAF-1 (Homo sapiens, UniProt P04049); assay: RAF-1 ELISA phosphorylation assay (RAF-catalyzed phosphorylation of MEK and MAPK); type: biochemical; conditions: RAF-1 phosphorylation assay, lysates from RAS/RAF infected Sf9 cells, substrates T-MEK and His-MAPK
T1 construct: made in house; host or cells: Sf9 (Spodoptera frugiperda) cells co-infected with RAS and RAF recombinant baculoviruses
T1 sequence (P04049 whole entry): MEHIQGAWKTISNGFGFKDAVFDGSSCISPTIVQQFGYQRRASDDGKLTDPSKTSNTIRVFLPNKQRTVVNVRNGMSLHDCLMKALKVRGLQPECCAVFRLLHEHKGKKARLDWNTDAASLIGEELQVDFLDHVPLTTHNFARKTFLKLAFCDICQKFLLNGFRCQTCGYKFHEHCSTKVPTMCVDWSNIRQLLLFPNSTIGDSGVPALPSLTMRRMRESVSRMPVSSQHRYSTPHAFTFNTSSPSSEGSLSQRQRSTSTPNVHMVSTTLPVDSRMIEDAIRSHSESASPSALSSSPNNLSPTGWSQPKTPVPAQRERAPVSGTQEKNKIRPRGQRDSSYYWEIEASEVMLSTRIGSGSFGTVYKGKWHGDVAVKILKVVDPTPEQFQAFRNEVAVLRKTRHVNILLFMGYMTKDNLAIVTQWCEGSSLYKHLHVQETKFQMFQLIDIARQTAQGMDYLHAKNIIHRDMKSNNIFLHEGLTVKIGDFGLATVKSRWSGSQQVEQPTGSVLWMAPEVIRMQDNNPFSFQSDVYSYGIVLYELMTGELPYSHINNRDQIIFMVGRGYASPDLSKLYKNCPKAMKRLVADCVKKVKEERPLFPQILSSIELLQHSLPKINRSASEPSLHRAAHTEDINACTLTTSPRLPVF
From the text: The following assay reports the amount of RAF-catalyzed phosphorylation of its target protein MEK as well as MEK's target MAPK. The RAF gene sequence is described in Bonner et al., 1985, Molec. Cell. Biol. 5: 1400-1407, and is readily accessible in multiple gene sequence data banks. Construction of the nucleic acid vector and cell lines utilized for this portion of the invention are fully described in Morrison et al., 1988, Proc. Natl. Acad. Sci. USA 85: 8855-8859.
• 1. Sf9 (Spodoptera frugiperda) cells; GIBCO-BRL, Gaithersburg, Md. • 2. RIPA buffer: 20 mM Tris/HCl pH 7.4, 137 mM NaCl, 10% glycerol, 1 mM PMSF, 5 mg/L Aprotenin, 0.5% Triton X-100; • 3. Thioredoxin-MEK fusion protein (T-MEK): T-MEK expression and purification by affinity chromatography were performed according to the manufacturer's procedures. Catalog#K 350-01 and R 350-40, Invitrogen Corp., San Diego, Calif. • 4. His-MAPK (ERK 2); His-tagged MAPK was expressed in XL1 Blue cells transformed with pUC18 vector encoding His-MAPK. His-MAPK was purified by Ni-affinity chromatography. Cat#27-4949-01, Pharmacia, Alameda, Calif., as described herein. • 5. Sheep anti mouse IgG: Jackson laboratories, West Grove, Pa. Catalog, #515-006-008, Lot#28563 • 6. RAF-1 protein kinase specific antibody: URP2653 from UBI. • 7. Coating buffer: PBS; phosphate buffered saline, GIBCO-BRL, Gaithersburg, Md. • 8. Wash buffer: TBST-50 mM Tris/HCL pH 7.2, 150 mM NaCl, 0.1% Triton X-100 • 9. Block buffer: TBST, 0.1% ethanolamine pH 7.4 • 10. DMSO, Sigma, St. Louis, Mo. • 11. Kinase buffer (KB): 20 mM Hepes/HC1 pH 7.2, 150 mM NaCl, 0.1% Triton X-100, 1 mM PMSF, 5 mg/L Aprotenin, 75 μM sodium ortho vanadate, 0.5 MM DTT and 10 mM MgCl2. • 12. ATP mix: 100 mM MgCl2, 300 μM ATP, 10 μCi γ-^33P ATP (Dupont-NEN)/mL. • 13 Stop solution: 1% phosphoric acid; Fisher, Pittsburgh, Pa. • 14. Wallac Cellulose Phosphate Filter mats; Wallac, Turku, Finnland. • 15. Filter wash solution: 1% phosphoric acid, Fisher, Pittsburgh, Pa. • 16. Tomtec plate harvester, Wallac, Turku, Finnland. • 17. Wallac beta plate reader #1205, Wallac, Turku, Finnland. • 18. NUNC 96-well V bottom polypropylene plates for compounds Applied Scientific Catalog #AS-72092. Procedure
All of the following steps were conducted at room temperature unless specifically indicated. • 1. ELISA plate coating: ELISA wells are coated with 100 μL of Sheep anti mouse affinity purified antiserum (1 μg/100 μL coating buffer) over night at 4° C. ELISA plates can be used for two weeks when stored at 4° C. • 2. Invert the plate and remove liquid. Add 100 μL of blocking solution and incubate for 30 min. • 3. Remove blocking solution and wash four times with wash buffer. Pat the plate on a paper towel to remove excess liquid. • 4. Add 1 μg of antibody specific for RAF-1 to each well and incubate for 1 hour. Wash as described in step 3. • 5. Thaw lysates from RAS/RAF infected Sf9 cells and dilute with TBST to 10 μg/100 μL. Add 10 μg of diluted lysate to the wells and incubate for 1 hour. Shake the plate during incubation. Negative controls receive no lysate. Lysates from RAS/RAF infected Sf9 insect cells are prepared after cells are infected with recombinant baculoviruses at a MOI of 5 for each virus, and harvested 48 hours later. The cells are washed once with PBS and lysed in RIPA buffer. Insoluble material is removed by centrifugation (5 min at 10,000×g). Aliquots of lysates are frozen in dry ice/ethanol and stored at −80° C. until use. • 6. Remove non-bound material and wash as outlined above (step 3). • 7. Add 2 μg of T-MEK and 2 μg of His-MAEPK per well and adjust the volume to 40 μL with kinase buffer. Methods for purifying T-MEK and MAPK from cell extracts are provided herein by example. • 8. Predilute compounds (stock solution 10 mg/mL DMSO) or extracts 20 fold in TBST plus 1% DMSO. Add 5 μL of the prediluted compounds/extracts to the wells described in step 6. Incubate for 20 min. Controls receive no drug. • 9. […]

| IC50 (RAF-1) | melting point | SMILES |
| --- | --- | --- |
| > 100 µM | – | Cc1ccc(Sc2cccc3nc(N)nc(N)c23)cc1 [Compound A-4, 2,4-Diamino-5-(4-methylphenylthio)quinazoline] |
| > 100 µM | – | Nc1nc(N)c2c(Sc3ccc(Cl)cc3)cccc2n1 [Compound A-5, 2,4-Diamino-5-(4-chlorophenylthio)quinazoline] |
| – | 279 to 283 °C (dec.) | Nc1nc(N)c2c(Nc3ccccc3)cccc2n1 [Compound A-35, 2,4-Diamino-5-anilinoquinazoline] |

More lines, now with the values behind:

| SMILES | IC50 (RAF-1) | melting point |
| --- | --- | --- |
| CN(C)c1cccc(Oc2cccc3nc(N)nc(N)c23)c1 [Compound A-14, 2,4-Diamino-5-(3-dimethylaminophenoxy)quinazoline] | 24.6 µM and 57 µM | – |
| Nc1ncnc2cccc(Sc3ccccc3)c12 [Compound A-3, 4-Amino-5-phenylthioquinazoline] | 25.6 µM | – |
| COc1ccc(Oc2cccc3ncnc(N)c23)cc1 [Compound A-15, 4-Amino-5-(4-methoxyphenoxy)quinazoline] | 0.8 µM | – |
| Nc1nc(N)c2c(Oc3cccc(C(F)(F)F)c3)cccc2n1 [Compound A-11, 2,4-Diamino-5-(3-trifluoromethylphenoxy)quinazoline] | > 100 µM | – |
| Nc1ncnc2cccc(Oc3ccc(F)cc3)c12 [Compound A-13, 4-Amino-5-(4-fluorophenoxy)quinazoline] | 0.1 µM | 188 to 190 °C |
| Nc1nc(-c2ccccc2)nc2cccc(Oc3ccccc3)c12 [Compound A-12, 4-Amino-2-phenyl-5-phenoxyquinazoline] | > 100 µM | 190 to 191 °C |
